Data set [1] in a line: Alamar Blue cell viability assay. The data set is classed as cell-based. The note with it: human, HEK-293T cells. The protocol: Cytotoxicity of selected 3HQs was assessed in HEK-293T cells using the Alamar Blue assay as a general cell viability endpoint method that monitors the cellular metabolic state, and the propidium iodide (PI) exclusion assay was used to evaluate membrane integrity essentially as described. The 3HQs were tested at a final concentration of 50 and 100 μM (two independent assays; five replicates each). Control assays were performed using 1% DMSO (negative control), or SDS at 1 mg/mL as a positive control of cell death in the PI assay. HEK-293T cells were seeded in sterile flat bottom 96-well tissue culture plates, in RPMI 1640 culture medium, supplemented with 10% fetal bovine serum, 100 units/mL of penicillin G (sodium salt), 100 μg/mL of streptomycin sulphate and 2 mM L-glutamine, at a cell density of 2 × 10^4 cells per well. Cells were incubated at 37 °C and 5% CO2. The culture medium was replaced by fresh medium (supplemented as above) containing the different 3HQs to be analyzed. After 24 h incubation, the culture medium was replaced by […] PI (Sigma-Aldrich) in fresh medium (stock solution 1.5 mM in DMSO) and fluorescence was measured (λexc 485 nm, λem 590 nm) in a FLUOstar Omega microplate reader. The Alamar Blue assay was performed by replacing the culture medium with fresh medium containing 5 mM resazurin (Invitrogen). The cells were further incubated for 3 h and fluorescence was measured (λexc 530 nm, λem 590 nm) in a FLUOstar Omega microplate reader (BMG Labtech). The relative PI uptake and cell viability (%) were calculated using Equations (3) and (4), respectively. Relative PI uptake = Fluorescence intensitysample/Fluorescence intensitynegative control(3) Relative cell viability (%) = Fluorescence intensitysample/Fluorescence intensitycontrol × 100(4)

Data set [2] addresses T1, hPAH-RD^1–120 (N-terminal regulatory domain) (Homo sapiens, UniProt P00439).
T1 construct: consisting solely of the N-terminal regulatory domain (amino acids 1–120); made in house; host or cells: E. coli TB1
T1 sequence (P00439 1-120): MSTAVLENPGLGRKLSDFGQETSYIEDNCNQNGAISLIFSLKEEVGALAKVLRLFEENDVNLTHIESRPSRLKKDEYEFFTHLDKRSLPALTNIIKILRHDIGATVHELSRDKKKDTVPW
As to the kind of experiment: Light scattering assay of hPAH-RD1–120 self-association. The protocol:
Self-assembly of the dimeric forms of hPAH-RD^1–120 was followed in real-time at 25 °C upon cleavage of MBP-FXa-hPAH-RD^1–120 with FXa (New England Biolabs) to release the MBP fusion partner. Assays (n = 3) were performed in the absence or presence of tested compounds as described in [17]. Briefly, FXa (at a final ratio 1:150 (w/w) relative to the fusion protein) was added to the reaction mixture containing the MBP-FXa-hPAH-RD^1–120 fusion protein (0.74 mg/mL), 20 mM Na-HEPES, 100 mM NaCl, pH 7.0 and tested 3HQ (100 μM). The increase in absorbance at 350 nm was followed for 180 min on a FLUOstar Omega (BMG Labtech) microplate reader. A shaking step was introduced before each measurement. Appropriate control assays were performed and included: (i) a positive control consisting of MBP-FXa-hPAH-RD^1–120 in the presence of FXa, 1% DMSO and in the absence of compounds; and (ii) a negative control consisting of MBP-FXa-hPAH-RD^1–120 in the absence of FXa and compounds. For all the assays, aliquots of the aggregation reaction were collected at the end of the reaction (180 min) and analyzed by SDS-PAGE to confirm the extent of MBP cleavage by FXa. In addition, the effect of tested compounds on FXa activity was monitored using the synthetic FXa substrate Boc–Ile–Glu-Gly–Arg–AMC (t-(Butyloxycarbonyl)-isoleucylglutamylglycylarginyl-7-amido-4-methylcoumarin; from Bachem). Assays (n = 3) were performed in a 96-well plate, in a final volume of 200 μL containing 20 mM Na-HEPES, 100 mM NaCl, pH 7.0, 5 μg/mL of FXa, 50 μM of Boc–Ile-Glu–Gly–Arg–AMC and 100 μM of 3HQ derivatives. Fluorescence was measured in real-time (λexc 360 nm and λem 460 nm) during 30 min, at 25 °C. Controls were performed using substrate alone with 1% DMSO (negative control) and FXa with no compounds and 1% DMSO (positive control).

For data set [3], the target named is T2, human phenylalanine hydroxylase (hPAH) (Homo sapiens, UniProt P00439).
T2 construct: Recombinant full-length wild-type (WT) hPAH was expressed in E. coli Top10 cells in fusion with a hexa-histidyl peptide; made in house; host or cells: E. coli Top10
T2 sequence (P00439 1-452): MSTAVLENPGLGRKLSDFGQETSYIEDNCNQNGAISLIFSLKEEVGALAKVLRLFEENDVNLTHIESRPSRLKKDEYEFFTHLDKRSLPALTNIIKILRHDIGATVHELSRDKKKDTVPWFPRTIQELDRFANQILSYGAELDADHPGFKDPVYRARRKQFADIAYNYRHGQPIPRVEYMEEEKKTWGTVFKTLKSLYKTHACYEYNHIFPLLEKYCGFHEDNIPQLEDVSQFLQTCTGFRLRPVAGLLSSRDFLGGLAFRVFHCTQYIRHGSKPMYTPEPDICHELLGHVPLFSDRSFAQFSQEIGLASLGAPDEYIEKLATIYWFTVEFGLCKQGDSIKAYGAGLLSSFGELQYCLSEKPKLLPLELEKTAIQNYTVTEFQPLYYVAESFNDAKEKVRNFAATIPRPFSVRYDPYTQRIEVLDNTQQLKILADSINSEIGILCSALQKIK
Also on record: method as in PMID 12379147, PMID 15060071. The following applies: ref [24],[25]; read-out: KD of L-Phe, previously reported SPR values; cited from earlier work.

“And” between values parts separate entries of the source, which are not always exact repeats. Equal values may be shown once.

As a reminder, the viability is a read-out of living cells in per cent, often relative to untreated cells. As for `COC(=O)CC[C@H](NC(=O)c1c(O)c(=O)[nH]c2ccc(OC(F)(F)F)cc12)C(=O)OC` [Compound 9], in data set [1], the viability at 24 h, 50 µM came to 85 ± 32% and the viability at 24 h, 100 µM worked out at 82 ± 13%.

Usually Kd stands for the equilibrium constant for the complex coming apart. In the case of `N[C@@H](Cc1ccccc1)C(=O)O` [L-Phe, L-phenylalanine, reference compound], the “effect on hPAH-RD^1–120 aggregation” value in data set [2] (100 μM, 180 min, 25 °C) was “only slightly prevented hPAH-RD^1–120 aggregation”; in data set [2] (1 mM L-Phe), “completely blocked it”. Besides, the Kd in data set [3] is 97 µM and 136 µM.

In the case of `COC(=O)CNC(=O)c1c(O)c(=O)[nH]c2ccc(OC(F)(F)F)cc12` [Compound 11], the “effect on hPAH-RD^1–120 aggregation” value in data set [2] (100 μM, 180 min, 25 °C) is “no direct evidence of a direct binding to hPAH-RD^1–120 was obtained”. Besides, in data set [1], the viability at 24 h, 50 µM was 94 ± 3% and the viability at 24 h, 100 µM came to 101 ± 5%.
